Experiments:
[1] = Dissolution rate of granules in deionized water monitored by conductivity; type: physicochemical; details: for time needed (s) to reach 75% dissolved / time needed (s) to reach 90% dissolved / time needed (s) to reach 95% dissolved / time needed (s) to reach 100% dissolved: 1 gram granules in 75 gram deionized water, stirred, trisodium salt
Method: The dissolution rate of these granules was compared to the dissolution rate of the original granules that were not heat treated:
1 gram of granules was added in one shot to a stirred container filled with 75 gram deionized water, equipped with a conductivity measurement probe. The conductivity of the dispersion was monitored in time. The degree of dissolution was determined by dividing the conductivity by the value finally obtained when the sample was fully dissolved yielding a stable level of conductivity.
(The measurements were done in duplicate yielding the same result)

[2] = Free flowability and weight gain after storage in climate chamber at 40° C. and 75% relative humidity; type: physicochemical; details: mean of three dishes; for fraction free flowing (%) Original / weight gain (%) Original: non-treated sample, stored 5 days at 40° C. and 75% relative humidity; for fraction free flowing (%) Treated / weight gain (%) Treated: sample dried 4 hours at 160° C., then stored 5 days at 40° C. and 75% relative humidity
Method: The compounds obtained in Examples 1 and 3 were dried 4 hours at 160° C. Subsequently, 5 grams of each sample were distributed evenly over the bottom of a (separate) crystallization dish (diameter 10 cm) and stored for 5 days in a climate chamber at 40° C. and 75% relative humidity. As a reference also the non-treated samples, as well as a sample of Trilon M granules (Na3-MGDA solid ex BASF), were stored in the same climate chamber at the same time.
To improve reliability of the testing, three separate dishes of all samples were stored at the same conditions.
After five days the dishes were weighed and the gain in mass of the contents was determined.
To estimate the amount of material that was still free flowing, the dishes were first tapped gently and then were mounted vertically to estimate the amount of material that remained sticking on the glass surface versus the amount of granular material ending on the bottom.

Structure (SMILES) | time needed (s) to reach 75% dissolved [1] [s] | time needed (s) to reach 90% dissolved [1] [s] | time needed (s) to reach 95% dissolved [1] [s] | time needed (s) to reach 100% dissolved [1] [s] | dissolution compared to type I containing granules ([1]; type III containing granules versus original, not heat treated type I granules) | fraction free flowing (%) Original [2] [%] | weight gain (%) Original [2] [%] | fraction free flowing (%) Treated [2] [%] | weight gain (%) Treated [2] [%]
CC(C(=O)[O-])N(CC(=O)[O-])CC(=O)[O-].[Na+].[Na+].[Na+] (single isomer, unassigned) [type I, methyl glycine-N,N-diacetic acid trisodium salt, reference compound] | 40 | 110 | 160 | 260 |  |  |  |  | 
CC(C(=O)[O-])N(CC(=O)[O-])CC(=O)[O-].[Na+].[Na+].[Na+] (single isomer, unassigned) [type III, methyl glycine-N,N-diacetic acid trisodium salt] | 22 | 36 | 45 | 90 | dissolve much faster |  |  |  | 
CC(C(=O)[O-])N(CC(=O)[O-])CC(=O)[O-].[Na+].[Na+].[Na+] (centres unmarked) [Example 1, Na3-MGDA] |  |  |  |  |  | 40 | 11 | 65 | 27
CC(C(=O)[O-])N(CC(=O)[O-])CC(=O)[O-].[Na+].[Na+].[Na+] (centres unmarked) [Example 3, Na3-MGDA] |  |  |  |  |  | 20 | 17 | 80 | 29
